Test results reported in the NIST ThermoML archive (doi:10.1016/j.jct.2010.08.010).

Conditions: Liquid, Buoyancy - hydrostatic balance with magnetic suspension - one sinker

CCO [ethanol]
Conditions	mass density [kg/m3]
353.15 K, 5946.1 kPa	742.072
353.15 K, 8005.6 kPa	744.473
353.15 K, 10092 kPa	746.834
353.15 K, 12108 kPa	749.042
353.15 K, 14010 kPa	751.074
353.15 K, 16061 kPa	753.214
353.15 K, 18136 kPa	755.321
353.15 K, 20137 kPa	757.302
353.15 K, 22100 kPa	759.195
353.15 K, 24062 kPa	761.047
353.15 K, 26069 kPa	762.906
353.15 K, 28075 kPa	764.73
353.15 K, 30016 kPa	766.442
373.15 K, 1102.9 kPa	715.263
373.15 K, 2003.4 kPa	716.613
373.15 K, 4088.3 kPa	719.636
373.15 K, 6108.7 kPa	722.45
373.15 K, 8076 kPa	725.091
373.15 K, 10096 kPa	727.71
373.15 K, 12124 kPa	730.256
373.15 K, 14044 kPa	732.583
373.15 K, 16078 kPa	734.983
373.15 K, 18122 kPa	737.319
373.15 K, 20098 kPa	739.516
373.15 K, 22116 kPa	741.702
373.15 K, 24049 kPa	743.742
373.15 K, 26068 kPa	745.822
373.15 K, 28108 kPa	747.871
373.15 K, 29942 kPa	749.678
393.15 K, 1102.9 kPa	691.923
393.15 K, 2003.6 kPa	693.559
393.15 K, 3981 kPa	697.012
393.15 K, 6085.6 kPa	700.514
393.15 K, 8006.1 kPa	703.56
393.15 K, 10040 kPa	706.659
393.15 K, 12072 kPa	709.623
393.15 K, 14119 kPa	712.504
393.15 K, 16086 kPa	715.168
393.15 K, 18081 kPa	717.782
393.15 K, 19900 kPa	720.097
393.15 K, 22039 kPa	722.726
393.15 K, 24041 kPa	725.121
393.15 K, 26092 kPa	727.505
393.15 K, 28070 kPa	729.738
393.15 K, 29851 kPa	731.71
413.15 K, 1102.6 kPa	665.097
413.15 K, 2002.8 kPa	667.194
413.15 K, 4113.3 kPa	671.781
413.15 K, 6094.1 kPa	675.838
413.15 K, 8091.5 kPa	679.694
413.15 K, 10044 kPa	683.283
413.15 K, 11973 kPa	686.66
413.15 K, 14085 kPa	690.174
413.15 K, 16053 kPa	693.316
413.15 K, 18080 kPa	696.427
413.15 K, 20003 kPa	699.262
413.15 K, 22069 kPa	702.204
413.15 K, 24049 kPa	704.916
413.15 K, 26035 kPa	707.559
413.15 K, 27916 kPa	709.988
413.15 K, 30021 kPa	712.618
433.15 K, 2003.3 kPa	636.052
433.15 K, 4004.9 kPa	641.895
433.15 K, 6117.7 kPa	647.513
433.15 K, 7970.2 kPa	652.088
433.15 K, 10076 kPa	656.927
433.15 K, 12092 kPa	661.27
433.15 K, 14024 kPa	665.195
433.15 K, 16095 kPa	669.184
433.15 K, 17956 kPa	672.597
433.15 K, 20025 kPa	676.22
433.15 K, 22076 kPa	679.658
433.15 K, 23970 kPa	682.703
433.15 K, 26097 kPa	685.993
433.15 K, 27971 kPa	688.786
433.15 K, 29931 kPa	691.61
453.15 K, 2000.7 kPa	597.505
453.15 K, 4003.1 kPa	606.126
453.15 K, 5998.3 kPa	613.615
453.15 K, 7995.3 kPa	620.308
453.15 K, 10007 kPa	626.429
453.15 K, 12086 kPa	632.177
453.15 K, 14048 kPa	637.222
453.15 K, 15954 kPa	641.798
453.15 K, 17939 kPa	646.288
453.15 K, 20012 kPa	650.704
453.15 K, 22018 kPa	654.751
453.15 K, 24140 kPa	658.813
453.15 K, 25982 kPa	662.178
453.15 K, 28127 kPa	665.939
453.15 K, 30017 kPa	669.115
473.15 K, 4002.6 kPa	562.328
473.15 K, 6007.1 kPa	573.872
473.15 K, 8001.4 kPa	583.438
473.15 K, 10006 kPa	591.752
473.15 K, 12009 kPa	599.085
473.15 K, 14093 kPa	605.96
473.15 K, 15977 kPa	611.66
473.15 K, 18013 kPa	617.325
473.15 K, 20010 kPa	622.485
473.15 K, 21973 kPa	627.259
473.15 K, 24020 kPa	631.94
473.15 K, 25868 kPa	635.925
473.15 K, 28002 kPa	640.289
473.15 K, 30014 kPa	644.229
